Source: the NIST ThermoML archive (doi:10.1021/je049701s)
Numbers after ± are expanded uncertainties.

Settings: Liquid; for mass density: 293.1 K, 101.33 kPa; for vapor or sublimation pressure: Ebulliometric method (Recirculating still)

Cc1ccccc1C [1,2-dimethylbenzene]
Settings	Normal boiling temperature [°C]	mass density [kg/m3]	vapor or sublimation pressure [kPa]
396.73 K	–	–	55 ± 0.03
399.52 K	–	–	60 ± 0.03
400.66 K	–	–	62.13 ± 0.03
404.71 K	–	–	70 ± 0.03
407.05 K	–	–	75 ± 0.03
409.44 K	–	–	80.33 ± 0.04
411.44 K	–	–	85 ± 0.04
413.5 K	–	–	90 ± 0.04
415.44 K	–	–	95 ± 0.04
418.23 K	–	–	102.5 ± 0.04
427 K	–	–	129.3 ± 0.04
Vibrating tube method	–	879.8 ± 0.13	–
ebulliometry	144.40 ± 0.005	–	–

Cc1cccc(C)c1 [1,3-dimethylbenzene]
Settings	mass density [kg/m3]	vapor or sublimation pressure [kPa]
–	864.2 ± 0.45	–
362.45 K	–	21.82 ± 0.33
366.31 K	–	25 ± 0.36
371.49 K	–	29.94 ± 0.4
376.31 K	–	35 ± 0.45
380.81 K	–	40.36 ± 0.5
384.3 K	–	45 ± 0.55
387.84 K	–	50 ± 0.61
389.84 K	–	53.54 ± 0.73
393.34 K	–	60 ± 0.73
397.71 K	–	67.97 ± 0.79
400.96 K	–	75 ± 0.87
403.25 K	–	80 ± 0.92
406.5 K	–	87.74 ± 0.94
407.5 K	–	90 ± 1
409.4 K	–	95 ± 1.1
415.54 K	–	111.8 ± 1.2
423.34 K	–	137.3 ± 1.3

CCc1ccccc1 [ethylbenzene]
Settings	mass density [kg/m3]	vapor or sublimation pressure [kPa]
–	867.1 ± 0.44	–
385.7 K	–	50 ± 0.66
387.75 K	–	53.37 ± 0.69
391.51 K	–	60 ± 0.73
394.15 K	–	65 ± 0.8
397.49 K	–	71.87 ± 0.84
398.93 K	–	75 ± 0.89
401.16 K	–	80 ± 0.92
403.27 K	–	85 ± 0.98
405.26 K	–	90 ± 1
407.14 K	–	95 ± 1.1
412.49 K	–	110.02 ± 1.2
417 K	–	124.3 ± 1.3

Cc1ccc(C)cc1 [1,4-dimethylbenzene]
Settings	mass density [kg/m3]	vapor or sublimation pressure [kPa]
–	861.2 ± 0.45	–
389.8 K	–	53.26 ± 0.67
390.85 K	–	55 ± 0.71
393.61 K	–	60 ± 0.77
398.72 K	–	70 ± 0.8
401.06 K	–	75 ± 0.88
403.29 K	–	80 ± 0.91
405.37 K	–	84.84 ± 0.99
409.38 K	–	95 ± 1.2
420.93 K	–	129.7 ± 1.2
